Laboratory results taken from patent publication US20240228446A1, “PREPARATION METHOD FOR BICYCLIC COMPOUND AND APPLICATION AS ANTIFUNGAL AGENT” (priority 2021, published 2024).
In brackets after ≈: the same amount, converted by molar mass.

Assays:
[1] = Drug-drug interaction / pharmacokinetic study of single drug and combination with nifedipine by gavage; details: CD1 mice, ketoconazole 30 mg/kg alone vs ketoconazole 30 mg/kg + nifedipine 15 mg/kg
Experimental: The dosing solution was prepared on the day of administration. An appropriate amount of nifedipine was precisely weighed into a centrifuge tube, then an appropriate volume of 0.5% MC was added thereto and vortexed to dissolve, resulting in a dosing solution with a concentration of 1.5 mg/mL.
Appropriate amounts of ketoconazole and isavuconazonium sulfate (CAS #946075-13-4) were precisely weighed and placed into separate centrifuge tubes. An appropriate volume of 0.5% MC was added to each tube and vortexed to dissolve, resulting in dosing solutions with concentrations of 3 mg/mL and 12 mg/mL, respectively.
An appropriate amount of the compound of the example of the present disclosure was precisely weighed into a centrifuge tube, then an appropriate volume of 16% SBECD was added thereto and vortexed to dissolve, resulting in a dosing solution with a concentration of 10 mg/mL.
CD1 mice, 6 to 8 weeks old, male, were divided into seven groups. […]

[2] = test system: Candida albicans ATCC MYA-2876; test: Minimal inhibitory concentration (MIC) test on fungal growth (CLSI M27, yeasts); type: cell-based; details: Candida albicans; lowest concentration inhibiting growth of yeast by 50%; 35° C., 24 hours; RPMI1640; read-out: MIC Candida albicans ATCC MYA-2876
Summary of the method: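 Broth microdilution followed CLSI M27 in RPMI1640 buffered with 0.165 M MOPS, pH 7.0, with a final inoculum of 500–2500 CFU/mL. Eleven 2-fold compound concentrations were tested, and plates were incubated 24 h at 35 °C. MIC was the lowest concentration giving 50% growth inhibition, read visually with optional OD530 assistance.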

[3] = test system: Aspergillus fumigatus ATCC MYA-4609; test: Minimal inhibitory concentration (MIC) test on fungal growth (CLSI M38, Aspergillus); type: cell-based; details: Aspergillus fumigatus; lowest concentration inhibiting Aspergillus by 100%; 35° C., 48 hours; RPMI1640; read-out: MIC Aspergillus fumigatus ATCC MYA-4609
Experimental: • RPMI1640 medium: Brand: Gibco, article number: 31800-014 • Sabouraud dextrose agar (SDA): Brand: Hope Bio, article number: HB0253-81 • Voriconazole: Brand: Adamas, article number: 22105A • Amphotericin B: Brand: AbCam, article number: ab141199
MIC test was conducted in accordance with the guidelines and requirements of CLSI M27 (for yeasts) and M38 (for Aspergillus).
Strain preparation: The strains were inoculated 1 day in advance by streaking on SDA plates with glycerol strains stored at −80° C. The strains were cultured at 35° C. and 40 to 60% humidity for 18 to 24 hours. Streak inoculation of Aspergillus fumigatus and Cryptococcus neoformans was required to be done 3 days and 2 days in advance, respectively.
Preparation of culture medium and compounds: The liquid culture medium RPMI was prepared with pure water, and 0.165 mol/L MOPS was added to adjust the pH to 7.0. The mixture was filtered with a 0.22 μm-membrane filter, sterilized, and stored at 4° C. (no more than 3 months). 0.85% physiological saline was sterilized at 121° C. for 30 min and then stored at room temperature (no more than 1 week). The compounds were dissolved in DMSO to 12.8 mg/mL and stored at −20° C.
For Aspergillus, 5 mL of physiological saline was added to cover the mycelium, and the spores were gently scraped off with a spreader. The spore suspension was then transferred to a sterile test tube. An appropriate amount of spore suspension was taken and counted under a microscope using a hemocytometer. Spore concentration was adjusted to approximately 0.4 to 5×10^4 spores/mL using RPMI1640 medium.
The compound was diluted to the highest 800 μg/mL (or 400 μg/mL) with DMSO, and a 10-step 2-fold gradient dilution was performed, resulting in 11 concentrations. 2 μL of the gradient-diluted compound was transferred to the corresponding wells of a 96-well plate, and then 198 μL of the inoculum was transferred to the test plate. The plate was incubated at 35° C. for 24 hours (Aspergillus fumigatus and Cryptococcus neoformans were incubated for 48 and 72 hours, respectively).
After the incubation, the growth of the fungi was visually observed. The lowest concentration of the compound that inhibited the growth of yeast by 50% (inhibited Aspergillus by 100%) was defined as the minimum inhibitory concentration (MIC, μg/mL). A magnifying glass or reading at OD530 nm could be used to assist in determining the MIC. Photos were taken of the test plates for record keeping.

Compound	exposure to ketoconazole, monotherapy group vs combination therapy group [1]	MIC [2] [µg/mL]	MIC [3] [µg/mL]
CC(=O)N1CCN(c2ccc(OCC3COC(Cn4ccnc4)(c4ccc(Cl)cc4Cl)O3)cc2)CC1 (centres unmarked) [ketoconazole]	not significantly different		
O[C@H](COc1ccc(C23CC(C(F)(F)C(O)(Cn4cnnn4)c4ccc(F)cc4F)(C2)C3)cc1F)C(F)(F)F (some centres unmarked) [Compound 134]		0.0078 (≈ 0.0138 µM)	4 (≈ 7.09 µM)
O[C@H](COc1ccc(C23CC(C(F)(F)[C@](O)(Cn4cnnn4)c4ccc(F)cc4F)(C2)C3)cc1F)C(F)(F)F [Compound 134A]		≤ 0.0039	2 (≈ 3.54 µM)
